Laboratory results reported in article PMC11224282, “Insight into binding of endogenous neurosteroid ligands to the sigma-1 receptor” (Nature Communications, 2024).
Where two headings read alike, the source gives them in different places.

Molecular target: T1, xlσ1R E169A (Xenopus laevis, UniProt Q6DCU6, E169A)
T1 construct: hemagglutinin signal peptide (N); made in house; host or cells: Pichia pastoris GS115
T1 sequence (Q6DCU6 1-221 E169A): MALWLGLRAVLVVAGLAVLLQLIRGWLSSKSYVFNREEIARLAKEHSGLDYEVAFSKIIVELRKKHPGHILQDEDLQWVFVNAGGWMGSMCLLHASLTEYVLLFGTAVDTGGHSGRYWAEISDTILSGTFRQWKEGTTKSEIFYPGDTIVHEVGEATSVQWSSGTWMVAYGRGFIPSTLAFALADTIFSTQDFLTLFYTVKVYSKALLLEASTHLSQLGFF
Experiment: Microscale thermophoresis (MST) binding to xlσ1R E169A mutant

CC(=O)[C@H]1CC[C@H]2[C@@H]3CCC4=CC(=O)CC[C@]4(C)[C@H]3CC[C@]12C [progesterone]
Kd (MST, xlσ1R E169A, N = 3, mean (± SD), read-out: Kd (mean)): 0.98 ± 0.18 µM | Kd (Source Data sheet Supplementary Table 3, E169A, mean of 3, read-out: Kd Mean): 0.99 µM | Kd (Source Data sheet Supplementary Table 3, E169A, repeat 1, read-out: Kd Repeat 1): 0.92 µM | Kd (Source Data sheet Supplementary Table 3, E169A, repeat 2, read-out: Kd Repeat 2): 1.19 µM | Kd (Source Data sheet Supplementary Table 3, E169A, repeat 3, read-out: Kd Repeat 3): 0.85 µM
